Experimental data published in publication PMC8002452, “Molecular Basis of AmpC β-Lactamase Induction by Avibactam in Pseudomonas aeruginosa: PBP Occupancy, Live Cell Binding Dynamics and Impact on Resistant Clinical Isolates Harboring PDC-X Variants” (International Journal of Molecular Sciences, 2021).

Experiments:
PBP4 = PBP4 (Pseudomonas aeruginosa, UniProt Q9HZG1); test: Intact cells' time-course of PBP-binding assay; format: cell-based, P. aeruginosa PAO1; conditions: 1 h; intact PAO1 cells, 4 µg/mL avibactam, 60 min; read-out: PBP4 fraction bound
Method: (§1) Figure 2 Time-course of intact cells and isolated PBP-binding assay. P. aeruginosa PAO1 cultures (a) and isolated PBP-containing membrane preparations (b) were incubated for 15, 30 and 60 min in the presence of 4 µg/mL avibactam (AVI). After isolating PBP-containing membranes, preparations were labeled with 25 µM bocillin FL. The graphs represent the PBP fraction unbound relative to each time control over time. The mean PBP fraction unbound values from at least three independent experiments ± standard deviations are shown.
(§2) P. aeruginosa PAO1 cultures grown to the midexponential phase (7.6 log10 CFU/mL) were preincubated in cation-adjusted Mueller–Hinton broth (CAMHB) at 37 °C (180 rpm) for 20 min. Afterwards, 4 µg/mL of avibactam (AVI) was added, and the bacterial cultures were incubated (37 °C, 180 rpm). Control and treatment samples were taken after 15, 30 and 60 min incubation, kept in ice and centrifuged (3220× g for 10 min at 4 °C). The bacterial pellets were washed in 30 mL phosphate-buffered saline (PBS) (pH 7.5) four times, resuspended in 10 mL of PBS and sonicated by using a Digital Sonifier Unit model S-450D (Branson Ultrasonics Corp., Danbury, CT, USA) at 40% amplitude for three 2 min bursts (while immersed in an ice bath) and centrifuged at 3220× g for 15 min at 4 °C. Membranes containing the PBPs were isolated by ultracentrifugation at 150,000× g for 30 min at 4 °C using an Optima L100XP Ultra centrifuge (Beckman Coulter, Inc., Palo Alto, CA, USA) and were resuspended in 60 μL of PBS. Total protein content was measured using the Quick Start Bradford protein assay kit with bovine serum albumin as a standard (Bio-Rad Laboratories, Hercules, CA, USA), according to the manufacturer’s instructions. To determine the PBP fraction unbound, membranes containing PBPs (20 μL, at 0.5 mg/mL) were labeled with a 25 μM concentration of the fluorescent penicillin bocillin FL [32]. Labeled PBPs were denatured and separated through 4–15% SDS–polyacrylamide gel electrophoresis (Bio-Rad Laboratories, Hercules, CA, USA). Labeled PBPs were visualized using a Typhoon FLA 9500 biomolecular imager (GE Healthcare Bio-Sciences AB, Uppsala, Sweden) (excitation at 488 nm and emission at 530 nm), and binding to different PBPs was determined from at least three independent experiments using ImageQuant TL software v8.1.0.0 (GE Healthcare Bio-Sciences AB, Uppsala, Sweden).

PBP3 [1] = biological target: T1, PBP3 (Pseudomonas aeruginosa, UniProt G3XD46); test: Intact cells' time-course of PBP-binding assay; format: cell-based, P. aeruginosa PAO1; conditions: intact PAO1 cells, 4 µg/mL avibactam, up to 60 min
T1 construct: PBP-containing membranes were isolated by ultracentrifugation; endogenous in cells; host or cells: P. aeruginosa PAO1 wild type (membrane preparations or intact cells)
Method: as §1, §2

PBP2 = biological target: T2, PBP2 (Pseudomonas aeruginosa, UniProt Q9X6V3); test: Intact cells' time-course of PBP-binding assay; format: cell-based, P. aeruginosa PAO1; conditions: intact PAO1 cells, 4 µg/mL avibactam, 60 min
T2 construct: PBP-containing membranes were isolated by ultracentrifugation; endogenous in cells; host or cells: P. aeruginosa PAO1 wild type (membrane preparations or intact cells)
Method: as §1, §2

PBP1b = PBP1b (Pseudomonas aeruginosa, UniProt G3XD31); test: Intact cells' time-course of PBP-binding assay; format: cell-based, P. aeruginosa PAO1; conditions: 1 h; intact PAO1 cells, 4 µg/mL avibactam, 60 min; read-out: PBP1b fraction bound
Method: as §1, §2

PBP1a = biological target: T3, PBP1a (Pseudomonas aeruginosa, UniProt Q07806); test: Intact cells' time-course of PBP-binding assay; format: cell-based, P. aeruginosa PAO1; conditions: intact PAO1 cells, 4 µg/mL avibactam, up to 60 min
T3 construct: PBP-containing membranes were isolated by ultracentrifugation; endogenous in cells; host or cells: P. aeruginosa PAO1 wild type (membrane preparations or intact cells)
Method: as §1, §2

PBP5/6 = PBP5/6 (Pseudomonas aeruginosa, UniProt G3XD74); test: Intact cells' time-course of PBP-binding assay; format: cell-based, P. aeruginosa PAO1; conditions: intact PAO1 cells, 4 µg/mL avibactam, up to 60 min
Method: as §1, §2

[2] = tested on: ampC mRNA in 101-E5 (CAZ/AVI-sensitive ST175 clinical isolate); test: qRT-PCR quantification of AmpC induction; format: cell-based, P. aeruginosa; conditions: IPM 8, FOX 64, AVI 16 µg/mL, relative to strain basal t=0
Method: (§3) Samples were taken at 0, 30 and 180 min. Total RNA was extracted with the RNeasy Mini Kit (Qiagen, Hilden, Germany) and treated with TURBO DNase (Thermo Fisher Scientific, Waltham, MA, USA) to remove contaminating DNA. Samples were afterwards normalized to 50 ng/µL.
(§4) Normalized samples were then used for one-step reverse transcription and real-time PCR amplification using the QuantiTect SYBR green qRT-PCR kit (Qiagen, Hilden, Germany) in a CFX Connect Real-Time PCR System (Bio-Rad, Hercules, California, USA). Previously described primer pairs ACrnaF/ACrnaR and rpsL-1/rpsL-2 were used for the amplification of ampC and housekeeping gene rpsL, respectively. The mean values of relative mRNA expression (2^−ΔΔCt) obtained from at least two independent biological replicates and duplicate technical replicates were considered.

[3] = tested on: ampC mRNA in 103-H8 (AmpC E247K; PDC-221, CAZ/AVI-resistant ST175 clinical isolate); test: qRT-PCR quantification of AmpC induction; format: cell-based, P. aeruginosa; conditions: IPM 8, FOX 64, AVI 16 µg/mL, relative to strain basal t=0
Method: as §3, §4

PBP3 [4] = biological target: T1, PBP3; test: biochemical; format: binding, P. aeruginosa PAO1; conditions: PAO1 membranes 0.5 mg/mL, 30 min, 25 µM bocillin FL
Method: PBP-binding affinity was determined using previously described methods. Briefly, P. aeruginosa PAO1 cultures grown to the midexponential phase (7.6 log10 CFU/mL) were incubated in CAMHB at 37 °C and 180 rpm, washed and centrifuged (3220× g for 10 min at 4 °C). Bacterial pellets were washed in 30 mL of PBS buffer (pH 7.5), resuspended in 10 mL of PBS and sonicated at 40% amplitude for three 2 min bursts (while immersed in an ice bath) and centrifuged at 3220× g for 15 min at 4 °C. PBP-containing membranes were isolated by ultracentrifugation at 150,000× g for 30 min at 4 °C. Total protein concentrations were measured through the Bradford method.
Subsequently, the fluorescent penicillin bocillin FL was added to a 25 μM final concentration. Labeled PBPs were denatured and separated through 4–15% SDS–polyacrylamide gel electrophoresis. Labeled PBPs were visualized using a Typhoon FLA 9500 biomolecular imager (GE Healthcare Bio-Sciences AB, Uppsala, Sweden) (excitation at 488 nm and emission at 530 nm), and binding was determined from at least three independent experiments using ImageQuant TL software v8.1.0.0 (GE Healthcare Bio-Sciences AB, Uppsala, Sweden).

T1 sequence (G3XD46 whole entry): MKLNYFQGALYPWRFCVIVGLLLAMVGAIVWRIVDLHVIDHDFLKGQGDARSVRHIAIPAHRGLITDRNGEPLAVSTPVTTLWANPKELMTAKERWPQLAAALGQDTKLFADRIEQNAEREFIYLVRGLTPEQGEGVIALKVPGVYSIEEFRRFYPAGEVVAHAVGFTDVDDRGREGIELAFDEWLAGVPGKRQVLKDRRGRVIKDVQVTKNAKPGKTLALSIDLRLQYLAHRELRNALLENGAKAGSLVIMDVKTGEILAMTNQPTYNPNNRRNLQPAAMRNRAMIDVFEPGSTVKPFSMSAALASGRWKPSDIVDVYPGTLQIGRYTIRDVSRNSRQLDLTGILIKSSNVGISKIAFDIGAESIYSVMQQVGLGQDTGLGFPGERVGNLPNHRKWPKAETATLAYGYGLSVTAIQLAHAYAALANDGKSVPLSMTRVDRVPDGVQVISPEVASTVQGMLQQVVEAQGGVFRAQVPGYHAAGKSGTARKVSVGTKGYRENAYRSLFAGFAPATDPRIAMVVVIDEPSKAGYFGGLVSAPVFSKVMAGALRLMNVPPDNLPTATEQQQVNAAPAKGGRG
Chain of PBP4 (Q9HZG1 entry or part of it): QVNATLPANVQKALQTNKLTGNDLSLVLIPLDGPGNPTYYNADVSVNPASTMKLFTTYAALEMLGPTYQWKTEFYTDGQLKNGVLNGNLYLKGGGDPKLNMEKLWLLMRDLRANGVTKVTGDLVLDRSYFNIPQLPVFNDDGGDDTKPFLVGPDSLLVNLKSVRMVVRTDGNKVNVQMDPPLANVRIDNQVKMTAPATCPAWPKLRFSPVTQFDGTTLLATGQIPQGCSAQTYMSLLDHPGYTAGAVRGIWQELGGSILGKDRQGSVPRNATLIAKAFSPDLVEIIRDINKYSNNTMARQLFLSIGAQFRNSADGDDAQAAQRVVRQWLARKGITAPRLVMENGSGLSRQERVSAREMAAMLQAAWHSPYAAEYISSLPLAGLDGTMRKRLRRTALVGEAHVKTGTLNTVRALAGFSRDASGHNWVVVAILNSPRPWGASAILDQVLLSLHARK
T2 sequence (Q9X6V3 entry or part of it): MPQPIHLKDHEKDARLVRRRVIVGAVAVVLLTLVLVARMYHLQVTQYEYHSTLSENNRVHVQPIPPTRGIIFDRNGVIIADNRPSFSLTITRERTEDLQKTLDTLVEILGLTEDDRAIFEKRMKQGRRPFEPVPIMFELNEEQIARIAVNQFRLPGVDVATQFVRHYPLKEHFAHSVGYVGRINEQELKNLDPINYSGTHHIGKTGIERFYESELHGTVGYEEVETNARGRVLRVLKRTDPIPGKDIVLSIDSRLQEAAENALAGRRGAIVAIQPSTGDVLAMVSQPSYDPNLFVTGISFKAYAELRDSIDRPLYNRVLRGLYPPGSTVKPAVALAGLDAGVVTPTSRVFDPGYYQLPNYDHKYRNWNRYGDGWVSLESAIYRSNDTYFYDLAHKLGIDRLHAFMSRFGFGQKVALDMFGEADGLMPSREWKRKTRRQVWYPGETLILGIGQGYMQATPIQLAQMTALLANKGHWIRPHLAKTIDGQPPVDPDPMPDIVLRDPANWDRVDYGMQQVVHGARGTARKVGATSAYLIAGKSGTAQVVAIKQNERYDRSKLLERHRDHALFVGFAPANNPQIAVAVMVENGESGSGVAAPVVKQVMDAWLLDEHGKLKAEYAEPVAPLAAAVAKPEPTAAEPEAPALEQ
T3 sequence (Q07806 whole entry): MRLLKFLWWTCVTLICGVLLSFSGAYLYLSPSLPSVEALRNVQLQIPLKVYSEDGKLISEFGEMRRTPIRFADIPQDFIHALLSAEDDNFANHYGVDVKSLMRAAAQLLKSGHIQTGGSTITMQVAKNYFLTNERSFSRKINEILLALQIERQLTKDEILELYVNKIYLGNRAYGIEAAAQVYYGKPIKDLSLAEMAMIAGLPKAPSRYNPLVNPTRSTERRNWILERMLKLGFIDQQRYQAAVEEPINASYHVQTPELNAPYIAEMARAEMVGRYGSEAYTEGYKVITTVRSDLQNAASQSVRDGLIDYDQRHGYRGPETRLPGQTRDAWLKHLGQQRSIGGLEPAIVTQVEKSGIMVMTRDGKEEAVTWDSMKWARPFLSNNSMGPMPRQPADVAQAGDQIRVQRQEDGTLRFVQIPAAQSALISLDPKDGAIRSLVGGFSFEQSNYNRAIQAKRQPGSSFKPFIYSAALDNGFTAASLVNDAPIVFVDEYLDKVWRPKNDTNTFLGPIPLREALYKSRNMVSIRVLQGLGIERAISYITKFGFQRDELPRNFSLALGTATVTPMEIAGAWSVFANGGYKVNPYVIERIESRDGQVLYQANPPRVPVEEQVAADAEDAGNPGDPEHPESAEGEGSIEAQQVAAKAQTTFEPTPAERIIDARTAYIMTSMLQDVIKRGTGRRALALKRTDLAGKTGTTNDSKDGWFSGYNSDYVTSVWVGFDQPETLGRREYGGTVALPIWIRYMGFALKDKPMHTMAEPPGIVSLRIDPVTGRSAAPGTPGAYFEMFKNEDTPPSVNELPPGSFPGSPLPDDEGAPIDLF
Chain of PBP5/6 (G3XD74 entry or part of it): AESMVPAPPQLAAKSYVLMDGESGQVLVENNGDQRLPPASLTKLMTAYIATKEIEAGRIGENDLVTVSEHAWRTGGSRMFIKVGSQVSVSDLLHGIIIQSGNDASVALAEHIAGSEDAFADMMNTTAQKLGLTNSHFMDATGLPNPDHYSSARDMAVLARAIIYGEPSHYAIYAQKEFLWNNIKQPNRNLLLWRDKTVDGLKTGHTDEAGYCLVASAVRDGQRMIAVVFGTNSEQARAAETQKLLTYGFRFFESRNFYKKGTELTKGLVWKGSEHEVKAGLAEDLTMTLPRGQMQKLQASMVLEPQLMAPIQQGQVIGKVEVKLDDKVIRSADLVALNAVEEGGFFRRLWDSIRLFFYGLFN
Chain of PBP1b (G3XD31 entry or part of it): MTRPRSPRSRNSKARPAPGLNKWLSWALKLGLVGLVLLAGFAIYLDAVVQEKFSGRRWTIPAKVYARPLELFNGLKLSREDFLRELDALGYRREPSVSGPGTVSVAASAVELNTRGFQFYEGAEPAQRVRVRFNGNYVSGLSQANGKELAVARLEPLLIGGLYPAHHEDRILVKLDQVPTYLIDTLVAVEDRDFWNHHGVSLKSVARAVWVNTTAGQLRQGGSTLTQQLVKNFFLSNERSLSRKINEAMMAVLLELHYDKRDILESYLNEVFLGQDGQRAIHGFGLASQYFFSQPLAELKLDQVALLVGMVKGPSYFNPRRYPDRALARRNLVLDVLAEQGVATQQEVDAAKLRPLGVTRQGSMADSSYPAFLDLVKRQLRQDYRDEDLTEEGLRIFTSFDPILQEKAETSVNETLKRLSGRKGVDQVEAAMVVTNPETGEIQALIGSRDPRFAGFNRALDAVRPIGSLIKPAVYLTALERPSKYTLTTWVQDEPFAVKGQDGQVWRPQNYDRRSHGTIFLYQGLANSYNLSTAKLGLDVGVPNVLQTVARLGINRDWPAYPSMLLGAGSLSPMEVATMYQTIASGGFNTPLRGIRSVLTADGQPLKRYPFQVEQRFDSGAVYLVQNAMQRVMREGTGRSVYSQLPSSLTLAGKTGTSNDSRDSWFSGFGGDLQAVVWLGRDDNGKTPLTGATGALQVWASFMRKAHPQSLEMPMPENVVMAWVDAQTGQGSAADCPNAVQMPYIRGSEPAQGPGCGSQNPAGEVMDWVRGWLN

NC(=O)[C@@H]1CC[C@@H]2CN1C(=O)N2OS(=O)(=O)O [Avibactam]
inhibition at 4 µg/mL (PBP4): ≤ 50% | PBP3 binding in whole-cell assay (PBP3 [1]): No significant | PBP2 fraction bound (PBP2): 20% | inhibition at 4 µg/mL (PBP1b): 20% | PBP1a binding in whole-cell assay (PBP1a): No significant | PBP5/6 binding in whole-cell assay (PBP5/6): No significant | Relative ampC expression ([2]; 101-E5, 0 min): 1.2 | Relative ampC expression ([2]; 101-E5, 30 min): 0.5 | Relative ampC expression ([2]; 101-E5, 180 min): 3.1 | Relative ampC expression ([3]; 103-H8, 0 min): 1.4 | Relative ampC expression ([3]; 103-H8, 30 min): 2.1 | Relative ampC expression ([3]; 103-H8, 180 min): 6.9 | Mean IC50 ± SD, PBP 3 (PBP3 [4]): no PBP1a and 3 binding was detected | IC50 (PBP3 [4]; read-out: Mean IC50 ± SD, PBP 3 (converted)): > 121 µM
